Converted amounts (≈) assume the structure as drawn. The source made the active and inactive calls. The rule behind the calls is not given here.
Key:
Assay type in all cases: functional, organism-based
Bacillus anthracis [1] = assay: Antimicrobial activity against Bacillus anthracis MurA1 AS clone 2G2 assessed as growth inhibition in presence of xylose by antisense-induced hypersensitive testing
Bacillus anthracis [2] = assay: Antimicrobial activity against Bacillus anthracis metRS1 AS 1H1 assessed as growth inhibition in presence of xylose by antisense-induced hypersensitive testing
Bacillus anthracis [3] = assay: Antimicrobial activity against Bacillus anthracis MurA1 AS clone 2G2 assessed as growth inhibition in absence of xylose by antisense-induced hypersensitive testing
[4] = Bacillus anthracis, MurA1 AS clone 2G2, read-out: IC50

## CCN1CCN(C(=O)N[C@@H](C(=O)N[C@@H]2C(=O)N3[C@@H]2SC(C)(C)[C@@H]3C(=O)O)c2ccccc2)C(=O)C1=O
Bacillus anthracis [1]
  inhibition: Active

## CN[C@H](CC(C)C)C(=O)N[C@H]1C(=O)N[C@@H](CC(N)=O)C(=O)N[C@H]2C(=O)N[C@H]3C(=O)N[C@H](C(=O)N[C@H](C(=O)O)c4cc(O)cc(O)c4-c4cc3ccc4O)[C@H](O)c3ccc(c(Cl)c3)Oc3cc2cc(c3O[C@@H]2O[C@H](CO)[C@@H](O)[C@H](O)[C@H]2O[C@H]2C[C@](C)(N)[C@H](O)[C@H](C)O2)Oc2ccc(cc2Cl)[C@H]1O
Bacillus anthracis [1]
  inhibition: Active

## Cc1onc(-c2ccccc2)c1C(=O)N[C@@H]1C(=O)N2[C@@H]1SC(C)(C)[C@@H]2C(=O)O
Bacillus anthracis [1]
  inhibition: Active

## O=C(O)c1ccc(OCc2nc3ccccc3[nH]2)c(OCc2ccc(Cl)cc2Cl)c1
Bacillus anthracis [2]
  inhibition: Active

## C[C@@H]1O[C@@H]1P(=O)(O)O [FOSFOMYCIN]
Bacillus anthracis [3]; [4]
  IC50: 126 µg/mL (≈ 913 µM)
Bacillus anthracis [1]; [4]
  IC50: 18 µg/mL

## CN(C)[C@@H]1C(O)=C(C(N)=O)C(=O)[C@@]2(O)C(O)=C3C(=O)c4c(O)cccc4[C@@](C)(O)[C@H]3C[C@@H]12 [TETRACYCLINE]
Bacillus anthracis [3]
  IC50: Not Active
Bacillus anthracis [1]
  IC50: Not Active

— ChEMBL document CHEMBL1275423 (Antimicrob Agents Chemother, 2008)
